Assay results as given in ChEMBL document CHEMBL4321854, “Discovery of a First-in-Class Mitogen-Activated Protein Kinase Kinase 1/2 Degrader” (J Med Chem, 2019).
pIC50: −log10 of the molar value. Active and inactive are the calls of the source. The rule behind the calls is not given here.

What was measured:
[1] = target: T1, von Hippel-Lindau disease tumor suppressor/Dual specificity mitogen-activated protein kinase kinase 2 (Homo sapiens) (UniProt P36507+P40337); assay: Protac activity against VHL/MEK2 in human HT-29 cells harboring BRAF V600E variant assessed as degradation of MEK2 by measuring reduction in MEK2 protein level at 0.5 uM after 24 hrs by Western blot analysis relative to control; format: cell-based; design: scale not given: the % may be the effect or the level left
COLO 205 = assay: Effect on total ERK protein expression in human COLO205 cells at 0.001 to 5 uM after 24 hrs by Western blot analysis; format: functional, cell-based
[2] = target: T2, von Hippel-Lindau disease tumor suppressor/Dual specificity mitogen-activated protein kinase kinase 2/Dual specificity mitogen-activated protein kinase kinase 1 (Homo sapiens) (UniProt P36507+Q02750+P40337); assay: Protac activity against VHL/MEK1/2 in human HT-29 cells harboring with BRAF V600E variant assessed as reduction in phosphorylation of ERK at T202/Y204 residues at 0.1 to 0.3 uM by Western blot analysis; format: cell-based; conditions: TDE = time-dependent effect
[3] = target: T3, von Hippel-Lindau disease tumor suppressor/Dual specificity mitogen-activated protein kinase kinase 1 (Homo sapiens) (UniProt Q02750+P40337); assay: Protac activity against VHL/MEK1 in human HT-29 cells harboring with BRAF V600E variant assessed as degradation of MEK1 by measuring MEK1 protein level at 0.3 uM pretreated with VHL ligand, VH 032 for 2 hrs followed by incubation with compound for 10 hrs by Western blot analysis; format: cell-based
[4] = Plasma concentration in Swiss albino mouse at 50 mg/kg, ip measured after 8 hrs by LC-MS/MS analysis; format: ADME, organism-based
[5] = target: T1, von Hippel-Lindau disease tumor suppressor/Dual specificity mitogen-activated protein kinase kinase 2 (Homo sapiens); assay: Protac activity against VHL/MEK2 in human HT-29 cells harboring with BRAF V600E variant assessed as degradation of MEK2 at 0.3 uM after 3 to 144 hrs by Western blot analysis; format: cell-based
[6] = target: Dual specificity mitogen-activated protein kinase kinase 1 (Homo sapiens, UniProt Q02750); assay: Inhibition of recombinant full length human His-tagged MEK1 expressed in baculovirus expression system using ERK K52R dead variant as substrate preincubated for 20 mins followed by incubation with 33P-ATP addition for 2 hrs by hotspot kinase assay
[7] = target: T3, von Hippel-Lindau disease tumor suppressor/Dual specificity mitogen-activated protein kinase kinase 1 (Homo sapiens); assay: Protac activity against VHL/MEK1 in human SK-MEL-28 cells harboring with BRAF V600E variant assessed as degradation of MEK1 at 0.1 to 0.3 uM by Western blot analysis; format: cell-based; conditions: TDE = time-dependent effect
[8] = target: T4, von Hippel-Lindau disease tumor suppressor/Dual specificity mitogen-activated protein kinase kinase 1 (Homo sapiens, UniProt Q02750+P40337, V600E); assay: (§1) Protac activity against VHL/MEK1 in human SK-MEL-28 cells harboring BRAF V600E variant assessed as degradation of MEK1 after 24 hrs by Western blot analysis; format: cell-based
[9] = target: T3, von Hippel-Lindau disease tumor suppressor/Dual specificity mitogen-activated protein kinase kinase 1 (Homo sapiens); assay: as §1; format: cell-based
SK-MEL-28 = assay: Effect on total ERK protein expression in human SK-MEL-28 cells at 0.001 to 5 uM after 24 hrs by Western blot analysis; format: functional, cell-based
[10] = target: T2, von Hippel-Lindau disease tumor suppressor/Dual specificity mitogen-activated protein kinase kinase 2/Dual specificity mitogen-activated protein kinase kinase 1 (Homo sapiens); assay: Protac activity against VHL/MEK1/2 in human HT-29 cells harboring with BRAF V600E variant assessed as reduction in phosphorylation of MEK at S218/222 residues at 0.1 to 0.3 after >= 2 hrs by Western blot analysis; format: cell-based
[11] = target: T2, von Hippel-Lindau disease tumor suppressor/Dual specificity mitogen-activated protein kinase kinase 2/Dual specificity mitogen-activated protein kinase kinase 1 (Homo sapiens); assay: Protac activity against VHL/MEK1/2 in human HT-29 cells harboring with BRAF V600E variant assessed as reduction in phosphorylation of ERK at T202/Y204 residues at 0.3 uM after 24 to 144 hrs by Western blot analysis; format: cell-based
[12] = target: T2, von Hippel-Lindau disease tumor suppressor/Dual specificity mitogen-activated protein kinase kinase 2/Dual specificity mitogen-activated protein kinase kinase 1 (Homo sapiens); assay: Protac activity against VHL/MEK1/2 in human COLO205 cells harboring with BRAF V600E variant assessed as reduction in phosphorylation of ERK at T202/Y204 residues after 24 hrs by Western blot analysis; format: cell-based
[13] = target: T3, von Hippel-Lindau disease tumor suppressor/Dual specificity mitogen-activated protein kinase kinase 1 (Homo sapiens); assay: Protac activity against VHL/MEK1 in human SK-MEL-28 cells harboring with BRAF V600E variant assessed as degradation of MEK1 by measuring MEK1 protein level at 0.3 uM pretreated with NEDD8-activating enzyme inhibitor, MLN4924 for 2 hrs followed by incubation with compound for 10 hrs by Western blot analysis; format: cell-based
[14] = target: T2, von Hippel-Lindau disease tumor suppressor/Dual specificity mitogen-activated protein kinase kinase 2/Dual specificity mitogen-activated protein kinase kinase 1 (Homo sapiens); assay: Protac activity against VHL/MEK1/2 in human SK-MEL-28 cells harboring with BRAF V600E variant assessed as phosphorylation of MEK at S218/222 residues at 0.3 uM pretreated with MEK1/2 inhibitor, PD0325901 for 2 hrs followed by incubation with compound for 2 hrs by Western blot analysis; format: cell-based
[15] = target: von Hippel-Lindau disease tumor suppressor/Dual specificity mitogen-activated protein kinase kinase 2 (Homo sapiens, UniProt P36507+P40337, V600E); assay: (§2) Protac activity against VHL/MEK2 in human SK-MEL-28 cells harboring BRAF V600E variant assessed as degradation of MEK2 after 24 hrs by Western blot analysis; format: cell-based
[16] = target: T1, von Hippel-Lindau disease tumor suppressor/Dual specificity mitogen-activated protein kinase kinase 2 (Homo sapiens); assay: as §2; format: cell-based
[17] = target: T2, von Hippel-Lindau disease tumor suppressor/Dual specificity mitogen-activated protein kinase kinase 2/Dual specificity mitogen-activated protein kinase kinase 1 (Homo sapiens); assay: Protac activity against VHL/MEK1/2 in human HT-29 cells harboring with BRAF V600E variant assessed as phosphorylation of ERK at T202/Y204 residues at 0.3 uM pretreated with NEDD8-activating enzyme inhibitor, MLN4924 for 2 hrs followed by incubation with compound for 10 hrs by Western blot analysis; format: cell-based
[18] = target: T4, von Hippel-Lindau disease tumor suppressor/Dual specificity mitogen-activated protein kinase kinase 1; assay: (§3) Protac activity against VHL/MEK1 in human UACC257 cells harboring BRAF V600E variant assessed as degradation of MEK1 after 24 hrs by Western blot analysis; format: cell-based
[19] = target: T3, von Hippel-Lindau disease tumor suppressor/Dual specificity mitogen-activated protein kinase kinase 1 (Homo sapiens); assay: as §3; format: cell-based
[20] = target: T1, von Hippel-Lindau disease tumor suppressor/Dual specificity mitogen-activated protein kinase kinase 2 (Homo sapiens); assay: Protac activity against VHL/MEK2 in human SK-MEL-28 cells harboring with BRAF V600E variant assessed as degradation of MEK2 by measuring reduction in MEK2 protein level at 0.1 to 0.3 uM after 2 hrs by Western blot analysis; format: cell-based
[21] = target: T2, von Hippel-Lindau disease tumor suppressor/Dual specificity mitogen-activated protein kinase kinase 2/Dual specificity mitogen-activated protein kinase kinase 1 (Homo sapiens); assay: Protac activity against VHL/MEK1/2 in human SK-MEL-28 cells harboring with BRAF V600E variant assessed as in phosphorylation of MEK at S218/222 residues at 0.3 uM pretreated with VHL ligand, VH 032 for 2 hrs followed by incubation with compound for 10 hrs by Western blot analysis; format: cell-based
[22] = target: Dual specificity mitogen-activated protein kinase kinase 2 (Homo sapiens, UniProt P36507); assay: Inhibition of recombinant full length human His-tagged MEK2 expressed in baculovirus expression system using ERK K52R dead variant as substrate preincubated for 20 mins followed by incubation with 33P-ATP for 2 hrs by hotspot kinase assay
HT-29 = assay: Antiproliferative activity against human HT-29 cells assessed as reduction in cell growth after 3 days by MTT assay; format: functional
[23] = target: T4, von Hippel-Lindau disease tumor suppressor/Dual specificity mitogen-activated protein kinase kinase 1; assay: (§4) Protac activity against VHL/MEK1 in human COLO205 cells harboring BRAF V600E variant assessed as degradation of MEK1 after 24 hrs by Western blot analysis; format: cell-based
[24] = target: T3, von Hippel-Lindau disease tumor suppressor/Dual specificity mitogen-activated protein kinase kinase 1 (Homo sapiens); assay: as §4; format: cell-based
[25] = Ratio of Plasma concentration in Swiss albino mouse at 50 mg/kg, ip measured after 8 hrs to GI50 for antiproliferative activity against human UACC257 cells; format: organism-based; conditions: in vivo
[26] = target: T3, von Hippel-Lindau disease tumor suppressor/Dual specificity mitogen-activated protein kinase kinase 1 (Homo sapiens); assay: Protac activity against VHL/MEK1 in human SK-MEL-28 cells harboring with BRAF V600E variant assessed as degradation of MEK1 by measuring reduction in MEK1 protein level at 0.3 uM after 4 hrs by Western blot analysis relative to control; format: cell-based; design: scale not given: the % may be the effect or the level left

T1 sequence (P36507 whole entry, looked up): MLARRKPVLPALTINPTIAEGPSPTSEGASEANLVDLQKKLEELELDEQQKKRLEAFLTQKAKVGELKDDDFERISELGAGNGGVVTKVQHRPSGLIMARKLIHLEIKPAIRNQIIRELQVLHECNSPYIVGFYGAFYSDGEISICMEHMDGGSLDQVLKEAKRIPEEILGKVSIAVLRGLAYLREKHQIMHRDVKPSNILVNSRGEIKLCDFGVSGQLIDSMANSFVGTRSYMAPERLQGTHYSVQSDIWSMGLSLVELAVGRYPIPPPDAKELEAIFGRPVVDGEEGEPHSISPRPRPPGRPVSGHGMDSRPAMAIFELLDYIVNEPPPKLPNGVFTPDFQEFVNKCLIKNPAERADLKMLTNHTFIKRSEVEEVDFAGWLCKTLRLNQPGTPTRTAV
T1 sequence (P40337 whole entry, looked up): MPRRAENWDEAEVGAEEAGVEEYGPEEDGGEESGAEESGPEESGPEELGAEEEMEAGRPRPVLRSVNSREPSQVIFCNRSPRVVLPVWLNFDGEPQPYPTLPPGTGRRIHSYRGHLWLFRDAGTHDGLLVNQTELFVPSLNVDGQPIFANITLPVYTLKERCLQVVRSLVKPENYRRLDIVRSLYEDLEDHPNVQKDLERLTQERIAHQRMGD
T2 sequence (P36507 whole entry, looked up): as the sequence (P36507 whole entry, looked up) above
T2 sequence (P40337 whole entry, looked up): as the sequence (P40337 whole entry, looked up) above
T2 sequence (Q02750 whole entry, looked up): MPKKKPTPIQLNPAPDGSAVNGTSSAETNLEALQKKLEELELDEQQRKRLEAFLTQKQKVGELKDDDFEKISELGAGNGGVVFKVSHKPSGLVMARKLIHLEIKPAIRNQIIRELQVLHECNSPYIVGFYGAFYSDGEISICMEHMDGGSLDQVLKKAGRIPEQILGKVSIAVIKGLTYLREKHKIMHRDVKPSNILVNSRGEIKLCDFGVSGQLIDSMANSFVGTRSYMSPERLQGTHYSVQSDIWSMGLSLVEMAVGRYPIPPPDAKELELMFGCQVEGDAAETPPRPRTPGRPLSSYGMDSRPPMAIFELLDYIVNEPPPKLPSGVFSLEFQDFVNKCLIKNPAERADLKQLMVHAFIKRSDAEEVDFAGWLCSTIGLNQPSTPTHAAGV
T4 sequence (P40337 whole entry, looked up, stated change not applied): as the sequence (P40337 whole entry, looked up) above
T4 sequence (Q02750 whole entry, looked up, stated change not applied): as the sequence (Q02750 whole entry, looked up) above
T3 sequence (P40337 whole entry, looked up): as the sequence (P40337 whole entry, looked up) above
T3 sequence (Q02750 whole entry, looked up): as the sequence (Q02750 whole entry, looked up) above
Sequence of Dual specificity mitogen-activated protein kinase kinase 1 (Q02750 whole entry): as the sequence (Q02750 whole entry, looked up) above
Sequence of Dual specificity mitogen-activated protein kinase kinase 2 (P36507 whole entry): as the sequence (P36507 whole entry, looked up) above
Sequence of von Hippel-Lindau disease tumor suppressor/Dual specificity mitogen-activated protein kinase kinase 2 (P36507 whole entry, looked up, stated change not applied): as the sequence (P36507 whole entry, looked up) above
Sequence of von Hippel-Lindau disease tumor suppressor/Dual specificity mitogen-activated protein kinase kinase 2 (P40337 whole entry, looked up, stated change not applied): as the sequence (P40337 whole entry, looked up) above

Cc1ncsc1-c1ccc([C@H](C)NC(=O)[C@@H]2C[C@@H](O)CN2C(=O)[C@@H](NC(=O)CCCCCCCCCCNCCCONC(=O)c2ccc(F)c(F)c2Nc2ccc(I)cc2F)C(C)(C)C)cc1
Activity [1]: > 80% | Activity (COLO 205): inactive | Activity [2]: Tde | Activity [3]: inactive | concentration at 8 h [4]: 710 nM | Activity [5]: Active | pIC50 [6]: 5.82 | Activity [7]: Tde | DC50 [8]: 31 nM | Activity [9]: Dose-dependent effect | Activity (SK-MEL-28): inactive | Activity [10]: Active | Activity [11]: Active | Activity [12]: Dose-dependent effect | Activity [13]: inactive | Activity [14]: inactive | DC50 [15]: 9.3 nM | Activity [16]: Dose-dependent effect | Activity [17]: inactive | DC50 [18]: 56 nM | Activity [19]: Dose-dependent effect | Activity [20]: Active | Activity [21]: inactive | pIC50 [22]: 6.23 | growth inhibition (GI) (HT-29): Dose-dependent effect | GI50 (HT-29; HT-29, 72 h): 130 nM | DC50 [23]: 18 nM | Activity [24]: Dose-dependent effect | Ratio [25]: 3 to 20 | Activity [26]: > 50%
